# Results as given in US20080014218A1, “USE OF TIGHT JUNCTION AGONISTS TO […] DELIVERY OF THERAPEUTIC AGENTS” (ALBA THERAPEUTICS CORP., priority 2006, published 2008).
# Where no end group is shown, it is not given here.
# Conditions: rats, lung instillation, 10 μg salmon calcitonin + 1 mg FCIGRL vs 10 μg salmon calcitonin alone
# Experimental: An aqueous saline solution containing 10 μg of salmon calcitonin was instilled into the lungs of rats and serum calcitonin levels were measured by ELISA. An aqueous saline solution containing 10 μg of salmon calcitonin and 1 mg of the tight junction agonist peptide FCIGRL was instilled into the lungs of rats and serum calcitonin levels were measured by ELISA.
substance,measurement,value
FCIGRL [FCIGRL],increase in area under the curve (AUC) of serum calcitonin,approximately 10.6 fold
same,increase in observed peak serum calcitonin levels,approximately three-fold
